Our source for the TGI and GI50 values is PubChem BioAssay (NCI).

Test systems include U251 CNS; HOP-92 NSCLC; TK-10 renal; COLO 205 colon; UACC-62 melanoma; M14 melanoma; UACC-257 melanoma; SNB-75 CNS; NCI-H460 lung; SK-OV-3 ovarian.
What all share (assay): NCI tumour cell line growth inhibition, 48 h

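How tested: cells in 96-well plates exposed to compound for 48 hours at five concentrations. Here, GI50 denotes the concentration required for 50% inhibition of growth. Definition used: TGI = concentration required for complete inhibition of growth.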 Some results are limits rather than exact numbers.

In the case of `CN(C)C(N)=NC#N`, the TGI in the test on U251 CNS, in the test with HOP-92 NSCLC, in the test on TK-10 renal, with COLO 205 colon, with UACC-62 melanoma and with M14 melanoma was over 100 µM throughout. Moreover, the TGI in the test on UACC-257 melanoma, in the test with SNB-75 CNS, in the test on NCI-H460 lung and in the test with SK-OV-3 ovarian was over 100 µM throughout.
On to `CCCCCCCCCCN(CCCCCCCCCC)CC(=O)c1ccc2cc(Br)c3ccccc3c2c1`, for which the GI50 in the test with U251 CNS was 1910 nM; in the test with HOP-92 NSCLC it was 1.88 µM; in the test with TK-10 renal, 1.76 µM; in the test with COLO 205 colon it was 1.66 µM; in the test on UACC-62 melanoma, 1.61 µM; with M14 melanoma, 1.91 µM. In addition, the GI50 with UACC-257 melanoma was 2.11 µM; with SNB-75 CNS it was 2.1 µM; in the test on NCI-H460 lung, 1.98 µM; in the test with SK-OV-3 ovarian, 4.94 µM. Also, the TGI in the test with U251 CNS was 3.55 µM; in the test on HOP-92 NSCLC, 5.12 µM; in the test on TK-10 renal, 3.26 µM; in the test with COLO 205 colon it was 3.16 µM; in the test with UACC-62 melanoma it was 3.35 µM; in the test on M14 melanoma, 3.53 µM. Also, the TGI in the test with UACC-257 melanoma is 4.4 µM; in the test with SNB-75 CNS, 5.45 µM; in the test with NCI-H460 lung, 3.98 µM; with SK-OV-3 ovarian, 17.6 µM.
On to `O=C(Nc1ccc(F)cc1)c1c(NC(=O)C(F)(F)F)sc2c1CCCCC2`, for which the GI50 with U251 CNS is 1730 nM; in the test on HOP-92 NSCLC it was 0.269 µM; with TK-10 renal it was 3.96 µM; in the test on COLO 205 colon it was 1.55 µM; in the test with UACC-62 melanoma it was 0.585 µM; with M14 melanoma it was 2.91 µM. Also, the GI50 in the test on UACC-257 melanoma was 2.21 µM; in the test on SNB-75 CNS, 1.34 µM; with NCI-H460 lung, 2.13 µM; with SK-OV-3 ovarian, 2.05 µM. Also, the TGI in the test on U251 CNS was over 100 µM; in the test on HOP-92 NSCLC it was 1.38 µM; in the test with TK-10 renal it was 12.5 µM; in the test with COLO 205 colon, 3.59 µM; in the test on UACC-62 melanoma, 5.19 µM; in the test on M14 melanoma, 13.4 µM. For the same compound, the TGI in the test on UACC-257 melanoma worked out at 7.17 µM; with SNB-75 CNS, 5.57 µM; in the test on NCI-H460 lung, 10 µM; in the test with SK-OV-3 ovarian, 6.37 µM.
Consider `C[C@]1(CO)[C@H]2CC[C@@]34C=C[C@@](CO)(CC[C@H]3[C@]2(C)CC[C@H]1O)C4`, for which the TGI in the test on U251 CNS, in the test on HOP-92 NSCLC, with TK-10 renal, in the test with COLO 205 colon, with UACC-62 melanoma and in the test with M14 melanoma was over 100 µM throughout. Further, the TGI in the test on UACC-257 melanoma, with SNB-75 CNS and with SK-OV-3 ovarian was over 100 µM throughout.
On to `Cc1nc2ccc(Nc3nc(NCCN4CCOCC4)nc(Nc4ccc(F)cc4)n3)cc2n1Cc1ccccc1`, for which the GI50 in the test with HOP-92 NSCLC was 1.59 µM; in the test with TK-10 renal it was 7.26 µM; in the test on COLO 205 colon, 1.62 µM; in the test on UACC-62 melanoma it was 2.27 µM; with M14 melanoma, 1.86 µM; in the test with UACC-257 melanoma, 1.74 µM. Besides, the GI50 with SNB-75 CNS is 1.59 µM; with NCI-H460 lung, 3.59 µM; with SK-OV-3 ovarian it was 4.48 µM. Further, the TGI in the test with HOP-92 NSCLC was 6.48 µM; with TK-10 renal, 32.2 µM; in the test with COLO 205 colon, 3.13 µM; with UACC-62 melanoma, 6.18 µM; in the test with M14 melanoma, 3.66 µM; in the test with UACC-257 melanoma it was 3.27 µM. For the same compound, the values for the TGI in the test with SNB-75 CNS, in the test on NCI-H460 lung and in the test on SK-OV-3 ovarian were 4.82 µM, 13.2 µM and 17.3 µM, respectively.
For `N=C(N=C(N)N)N1CCN(c2ccncc2)CC1`, the GI50 in the test on HOP-92 NSCLC, in the test on TK-10 renal, in the test on COLO 205 colon, with UACC-62 melanoma, in the test on M14 melanoma and with UACC-257 melanoma was over 1000 µM in each case. Besides, the GI50 in the test on SNB-75 CNS, in the test on NCI-H460 lung and in the test with SK-OV-3 ovarian was over 1000 µM throughout. Moreover, the TGI in the test with HOP-92 NSCLC, in the test with TK-10 renal, in the test with COLO 205 colon, with UACC-62 melanoma, with M14 melanoma and with UACC-257 melanoma was over 1000 µM in each case. Also, the TGI with SNB-75 CNS, with NCI-H460 lung and in the test with SK-OV-3 ovarian was over 1000 µM in each case.
With `CC(=O)OC1CC2C(C)(C)C(=O)C=C[C@]2(C)C2CCC3(C)C(c4ccoc4)C(=O)[C@H]4O[C@]43[C@]12C` (some centres undefined), the TGI is 32.9 µM in the test with U251 CNS; 34.4 µM in the test on HOP-92 NSCLC; over 100 µM in the test with TK-10 renal; over 100 µM in the test with COLO 205 colon; 64.2 µM in the test with UACC-62 melanoma; 82.4 µM in the test on M14 melanoma. Further, the TGI with SNB-75 CNS was over 100 µM; with NCI-H460 lung, 36.8 µM; with SK-OV-3 ovarian, over 100 µM.
With `NNc1nc2ccccc2c(=O)n1NC(=O)C(=O)Nc1cccc(C(F)(F)F)c1`, the TGI in the test on U251 CNS, in the test with HOP-92 NSCLC, in the test with TK-10 renal, in the test with UACC-62 melanoma, with M14 melanoma and in the test with UACC-257 melanoma was over 100 µM each time. Also, the TGI in the test with SNB-75 CNS, in the test with NCI-H460 lung and in the test with SK-OV-3 ovarian was over 100 µM in each case.
Regarding `CCOC(=O)c1[nH]c(-c2ccc(Cl)cc2)cc1-c1cccnc1`, the GI50 is 622 nM in the test on U251 CNS; 0.572 µM with HOP-92 NSCLC; 0.972 µM in the test with TK-10 renal; 0.398 µM with COLO 205 colon; 0.843 µM in the test on UACC-62 melanoma; over 100 µM with UACC-257 melanoma. The GI50 was 0.738 µM in the test on SNB-75 CNS, 0.449 µM in the test with NCI-H460 lung and 1.05 µM in the test with SK-OV-3 ovarian. Besides, the TGI is over 100 µM with U251 CNS; 84.7 µM in the test on HOP-92 NSCLC; over 100 µM with TK-10 renal; 7.49 µM in the test on COLO 205 colon; over 100 µM with UACC-62 melanoma; over 100 µM in the test with UACC-257 melanoma. The TGI in the test with SNB-75 CNS, in the test on NCI-H460 lung and in the test on SK-OV-3 ovarian was over 100 µM each time.
With `NC(=O)N/N=C/C(/C=N/NC(N)=O)[N+](=O)[O-]`, the TGI in the test on HOP-92 NSCLC, in the test on TK-10 renal, with COLO 205 colon, with UACC-62 melanoma, in the test with M14 melanoma and in the test with UACC-257 melanoma was over 100 µM each time. The TGI in the test on SNB-75 CNS and with SK-OV-3 ovarian was over 100 µM throughout.
